Data as given in US20150133524A1, “PYRUVATE DEHYROGENASE KINASES AS THERAEUTIC TARGETS FOR CANCER AND ISCHEMIC DISEASES” (THE JOHNS HOPKINS UNIVERSITY, priority 2004, published 2015).
Where two headings read alike, the source gives them in different places.

Columns and labels:
[1] = tested on: PDK1; assay: Immunoblot of PDK1 protein expression in P493-6 cells; format: cell-based, human; conditions: for PDK1 expression: P493-6 cells after electroporation with 100 nM siRNA, FIG. 4A
[2] = tested on: P493-6 cells; assay: Growth curves of P493-6 cells electroporated with siRNA; format: cell-based, human; conditions: 100 nM siRNA electroporated; hypoxia (0.1% O2); versus scrambled control siRNA; FIG. 4B
Procedure: siRNA targeting human PDK1 was designed and purchased from Dharmacon Research Inc (Lafayette, Colo.). 3×10^6 P493-6 cells were electroporated (1500 uF and 240 volts) with 100 nM of PDK1 siRNA (5′-CUACAUGAGUCGCAUUUCAdTdT-3′) (SEQ ID NO: 1). or scrambled control siRNA (5′-CACGCUCGGUCAAAAGGUUdTdT-3′) (SEQ ID NO: 7). in a 4 mm cuvette (BTX) using a Gene Pulser Xcell (Bio-Rad, Hercules, Calif.). The following day, 5×10^5 viable cells were subjected to hypoxic exposure (0.1% O2). At indicated times, viable cells were counted for growth curve, and the cellular proteins were harvested for Western blot analysis.

[3] = tested on: Hif1a−/− MEFs; assay: Cell proliferation assay (viable cell count) of Hif1a−/− MEFs
[4] = tested on: Hif1a−/− MEFs

How did the PDK1 expression [1] turn out when “5′-CACGCUCGGUCAAAAGGUUdTdT-3′ (dTdT overhang, complementary strand not cited, chemistry not fully specified) [scrambled control siRNA]” was run?
Its PDK1 expression is “did not reduce PDK1 expression”.

For “5′-CUACAUGAGUCGCAUUUCAdTdT-3′ (dTdT overhang, complementary strand not cited, chemistry not fully specified) [PDK1 siRNA, siRNA targeting human PDK1, designed and purchased from Dharmacon]”, which “growth of P493-6 cells in hypoxia” value [2] is on record?
Its value is “impaired”.

What about the PDK1 expression [1] of the same molecule?
Its PDK1 expression is “reduced”.

For `[Cl-].[Cl-].[Co+2]` [CoCl2], which PDK1 levels [1] is on record?
Its PDK1 levels is “increased”.

How did the “rescue (growth) of hypoxic Hif1a−/− mouse embryo fibroblasts” value ([3]; 0.1 μM rotenone, hypoxic (0.5% O2), FIG. 3D) turn out when `C=C(C)[C@H]1Cc2c(ccc3c2O[C@@H]2COc4cc(OC)c(OC)cc4[C@@H]2C3=O)O1` [Rotenone, rotenone] was run?
Its value is “able to rescue”.

What about the “proliferation of normoxic Hif1a−/− MEFs” value ([3]; 0.1 μM rotenone, normoxic (20% O2), FIG. 3D) of the same molecule?
Its value is “inhibited proliferation”.

How did the “toxicity to normoxic and hypoxic Hif1a−/− MEFs” value ([3]; both normoxic and hypoxic cells) turn out when `CO/C(=C/C(N)=O)[C@H](C)[C@H](/C=C/c1csc(-c2csc([C@@H](C)/C=C/C=C/C(C)C)n2)n1)OC` [myxothiazol] was run?
Its value is “toxic”.

With antimycin A as the molecule, how does the “toxicity to normoxic and hypoxic Hif1a−/− MEFs” value [4] read?
The value was “toxic”.
